Reference: patent publication US20230226231A1, “CONJUGATED AND LABELLED APELIN, PREPARATION AND USES THEREOF” (UNIVERSITE D'AIX MARSEILLE, priority 2020, published 2023)

What was measured:
[1] = test system: Human colon adenocarcinoma xenografts (T84 cells); test: MicroPET imaging in ectopic mouse model of human colon adenocarcinoma, baseline and blocking; assay type: in vivo, mice
Experimental: Human colon adenocarcinoma xenografts were established by subcutaneous injections of 1×10^6 T84 cells into 6-week-old male Swiss nude mice (Charles River) under 2% isoflurane anesthesia.
PET images were acquired 1 h after IV injection on a Mediso NanoPET/CT under 2% isoflurane anesthesia.

APJ = target: T1, APJ (Homo sapiens, UniProt P35414); test: Autoradiography with blocking strategy on T84 cells; assay type: cell-based; details: 100-fold excess of unconjugated Apelin13(F13A)
T1 construct: host or cells: T84 human colon adenocarcinoma cells
T1 sequence (P35414 1-380): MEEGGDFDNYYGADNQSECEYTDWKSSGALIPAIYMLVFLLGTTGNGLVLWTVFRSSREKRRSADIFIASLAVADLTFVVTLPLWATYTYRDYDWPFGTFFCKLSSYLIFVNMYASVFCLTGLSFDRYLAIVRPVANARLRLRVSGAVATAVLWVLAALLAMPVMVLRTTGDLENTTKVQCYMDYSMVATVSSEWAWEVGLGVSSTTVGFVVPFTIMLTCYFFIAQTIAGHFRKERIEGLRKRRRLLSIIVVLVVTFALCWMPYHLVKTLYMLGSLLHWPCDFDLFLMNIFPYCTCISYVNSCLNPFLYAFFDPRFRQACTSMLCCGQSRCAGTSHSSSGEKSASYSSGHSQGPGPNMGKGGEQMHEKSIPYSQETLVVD
Experimental: A blocking strategy was performed on cells expressing the highest level of APJ. This strategy consists in adding a large excess (100-fold) of unconjugated peptide (Apelin13(F13A)) before adding inventors' product of interest. Unspecific tracer was eliminated by several washes. The remaining activity, considered as specifically bound to the target, was evaluated by autoradiography.
T84 cell line (EuroBioDev) was cultivated in DMEM-F12/Glutamax medium complemented with 10% fetal bovine serum decomplemented and 1% antimycotic-antibiotic mix. Cell lines were maintained in a humidified 5% CO2 incubator at 37° C.

[2] = Hydrophilicity, water-octanol partition/distribution coefficient method; assay type: physicochemical; details: 1-octanol / phosphate-buffered saline pH 7.4
Experimental: Hydrophilicity of [^67Ga]Ga-AP747 was assessed by the water-octanol partition/distribution coefficient method. In a centrifuge tube, 500 μL of 1-octanol was added to 500 μL of phosphate-buffered saline (pH 7.4) containing the radiolabeled peptide (50 kBq). After equilibrium, the solution was vigorously stirred for 5 min at room temperature and subsequently centrifuged (4000 rpm, 5 min) to yield two immiscible layers. Aliquots of 100 μL were taken from each layer and the radioactivity in the samples was determined by a gamma counter (Perkin Elmer, Waltham, Mass., USA).

APJ receptor, T84 cells = target: T2, APJ receptor, T84 cells (Homo sapiens, UniProt P35414); test: In vitro internalization study in T84 cells; assay type: cell-based
T2 construct: host or cells: T84 human colon adenocarcinoma cells
T2 sequence (P35414 1-380): T1 sequence (P35414 1-380)
Experimental: (§1) T84 cells were cultured as described in saturation binding experiments above.
Three minutes before the end of the incubation time, internalization was stopped on ice and the supernatant was removed. Internalization was then stopped by eliminating the supernatant and each well was washed with 3×250 μL of ice-cold PBS. The membrane-bound fraction was retrieved in 2×250 μL sodium acetate buffer (20 mM, pH 5) for 5 min. Finally, cells were treated with 500 μL of NaOH (1 M). The radioactivity of the membrane-bound fraction and the internalized fraction was measured in a gamma counter. The experiment was performed twice. To also verify receptor specificity, blocking experiments were performed by using 1 μM of apelin-13.

T84 cells = test: In vitro efflux study on T84 cells; assay type: cell-based, human
Experimental: as §1
Three minutes before the end of the incubation time, internalization was stopped on ice and the supernatant was removed. Each well was washed with 1 mL of ice-cold PBS. The membrane-bound fraction was retrieved in 2 mL sodium acetate buffer (20 mM, pH 5) for 2 min, each well was rinsed a second time with 1 mL ice-cold PBS and fresh culture medium was added. At each time point (10, 30, 60 and 120 minutes), the efflux was stopped by collecting the medium and washing cells twice with ice-cold PBS. Finally, cells were treated with NaOH (1 M). The radioactivity of the collected culture medium supernatant, the PBS wash fractions, and the total internalized fraction was measured in a gamma counter. The experiment was performed twice.

[3] = Stability of radiolabelled tracer in human serum; assay type: in vitro ADME
Experimental: Determination of radiochemical purity was done by radio-thin-layer chromatography (ITLC-SG) and was performed using a Ray-test miniGITA radio-TLC scanner detector (Straubenhardt, Ge) (eluents, 1:1 [v/v] mixture of 1M aqueous ammonium acetate solution and methanol and also in Trisodium Citrate 0,1M). Evaluation of ^68Ga-NODAGA-Apelin13(F13A) stability was performed in human serum at 60 and 120 min after radiosynthesis.

Matrigel plug = test: MicroPET imaging in Matrigel mouse model; assay type: in vivo, mice
Experimental: These mice were also subcutaneously implanted with Matrigel (Dutscher) supplemented with 10% fetal bovine serum under 2% isoflurane anesthesia.
(§2) On hindlimb ischemia mouse model (n=8) and Matrigel mouse model (n=7) on day 1, 3, 7, 10, 13 and 21 post-surgery, mice were IV injected with 5-10 MBq of ^68Ga-NODAGA-Apelin13(F13A) under 2% isoflurane anesthesia.
(§3) PET images were acquired 60 min after IV injection on a Mediso Nanoscan PET/CT under 2% isoflurane anesthesia. On hindlimb ischemia mouse model and on day 1, 3, 7, 10, 13 and 21 post-surgery, mice were IV injected with 5-10 MBq of [^68Ga]Ga-NODAGA-RGD2 injection under 2% isoflurane anesthesia. PET images were acquired 60 min after IV injection on a Mediso Nanoscan PET/CT under 2% isoflurane anesthesia.
(§4) Quantitative region-of-interest (ROI) analysis of the PET images was performed on attenuation- and decay-corrected PET images using InVicro—VivoQuant software and tissue uptake values are presented as an ischemic muscle to contralateral muscle ratio and as a percentage of the injected dose per gram of tissue (% ID/g) which was determined by decay correction for each sample normalized to a standard of known weight, which was representative of the injected dose.

[4] = MicroPET biodistribution study in healthy mice; assay type: in vivo; details: IV injection, up to 2 h
Experimental: For biodistribution study in healthy mice (n=3), images were continuously acquired just after ^68Ga-NODAGA-Apelin13(F13A) IV injection with 5-6 MBq and recorded up to 2 h post injection on a Mediso NanoPET/CT under 2% isoflurane anesthesia.
as §4

ischemic limb = test: MicroPET imaging in mouse model of hindlimb ischemia; assay type: in vivo, mice
Experimental: Unilateral hindlimb ischemia was performed on 9-week-old male Swiss mice (Janvier Labs) after femoral artery excision under 2% isoflurane anesthesia. LASER Doppler perfusion imaging (Perimed, Craponne, France) was used to assess revascularization from day 0 to day 21 after surgery. Perfusion results are expressed as a ratio of ischemic to non-ischemic limb blood flow. Hindlimb ischemic damage was quantified on Days 1, 3, 7, 10, 13 and 21.
as §2, §3, §4

[5] = PET signal ratio on day 7, corrected with non-ischemic limb

CSCC[C@H](NC(=O)[C@@H]1CCCN1C(=O)CNC(=O)[C@H](CCCCN)NC(=O)[C@H](Cc1c[nH]cn1)NC(=O)[C@H](CO)NC(=O)[C@H](CC(C)C)NC(=O)[C@H](CCCNC(=N)N)NC(=O)[C@@H]1CCCN1C(=O)[C@H](CCCNC(=N)N)NC(=O)[C@@H](N)CCC(N)=O)C(=O)N1CCC[C@H]1C(=O)N[C@@H](C)C(=O)O [Apelin13(F13A), reference compound]
tolerance of cold peptide in in vivo blocking experiments ([1]; due to cardiovascular effects of Apelin): bad tolerance

AP747: AP747 corresponds to NODAGA-Apelin13(F13A); used radiolabelled in the autoradiography
remaining activity recorded by autoradiography in blocking condition compared to classic conditions (APJ): significantly reduced

[^67Ga]Ga-AP747: NODAGA-Apelin13(F13A) radiolabelled with gallium-67, used for in vitro binding, internalization and efflux studies
log D7.4 [2]: −3.03±0.02
internalized fraction of the cell associated radioactivity (maximum) (APJ receptor, T84 cells; 37° C., at 60 min): 79.7±7.3%
receptor specific membrane-bound fraction (APJ receptor, T84 cells; at any time point (10, 30, 60 min)): < 5%
efflux: fraction of the total binding externalized (T84 cells; 10 minutes post-internalization): 66.7±1.7%
efflux: fraction of the total binding externalized (T84 cells; at 2 h): 81.2±2.9%

[^68Ga]Ga-NODAGA-Apelin13(F13A): Apelin-13(F13A) peptide (SEQ ID NO: 5) conjugated to chelator NODAGA and radiolabelled with gallium-68; PET tracer of APJ
radiochemical purity after incubation in human serum ([3]; human serum, until two hours post-incubation, n=3): didn't lead to significant tampering
stability in serum ([3]; serum): up to 2 hours
PET signal in Matrigel compared with [68Ga]Ga-NODAGA-RGD2, globally over experiment period (Matrigel plug; day 1 to day 21): significantly superior
accumulation in Matrigel plug compared with [68Ga]Ga-NODAGA-RGD2 (Matrigel plug; day 10, day 13 and day 21, PET 60 min after IV injection): significantly higher
excretion and organ accumulation (PET signal quantification in organs) ([4]; n=3): fast and mainly urinary excretion without noticeable accumulation in liver, lungs or brain
excretion and organ accumulation (PET signal quantification in organs) ([4]; n=3, listed as (F13A)Apelin-NODAGA-^68Ga): Rapid urinary and hepatic elimination
relation of PET signal in ischemic limb to day-input function (LASER Doppler Day7/Day0) (ischemic limb; PET signal on day 7, corrected with non-ischemic limb): not linked
correlation of PET signal in ischemic limb with LASER-Doppler signal at day of surgery (ischemic limb; [5]): significantly negatively correlated
relation of PET signal in ischemic limb to reperfusion (LASER-Doppler Day 21/Day 0) (ischemic limb; [5]): more important when reperfusion is longer
PET signal in ischemic limb compared with [68Ga]Ga-NODAGA-RGD2 (ischemic limb; at peak): notably better
day of peak PET signal in ischemic limb (ischemic limb; ischemic limb corrected by non-ischemic limb, post-surgery): 7 days
partial blocking of PET signal in in vivo blocking experiments ([1]; pre-saturation with cold Apelin13(F13A), angiogenic and tumoral models): about 50%
